Test results: US20250127696A1, “COMPOSITION FOR PREVENTING OR IMPROVING SKIN-AGING CONTAINING A THYMOL ESTER-BASED COMPOUND” (AMOREPACIFIC CORPORATION, priority 2023, published 2025)

What was measured:
Assay type in all cases: cell-based, human
melanocytes [1] = experiment: Predicted transcriptome age (RNA-age) of melanocytes; details: 10 ppm, 24 hours, vs untreated control; RNAAgeCalc on FPKM data, skin tissue; FIG. 2
Description: (§1) Melanocytes were purchased from Cascade Biologics as cells cultured in the foreskin of newborn African-American males, and cultured using Medium254 medium mixed with human melanocyte growth supplement (Life technologies).
RNA was extracted from melanocytes treated with 10 ppm of Melasolv for 24 hours using TRIzol reagent (Life technologies). This RNA was used to prepare a library using the Illumina TruSeq Stranded Total RNA Library Prep kit (Illumina, San Diego, CA, USA), and then RNA-sequencing was performed using the NovaSeq 6000 platform (Illumina).
Thereafter, a model for predicting age based on approximately 16,000 gene expression values of RNA-seq data was applied to measure the RNA-age of the untreated control melanocytes (—in the graph of FIG. 2) and the RNA-age of the melanocytes treated with Melasolv. Specifically, the RNA-age used RNAAgeCalc package, which can calculate transcriptome age from RNAseq data. Among the transcriptome data, FPKM data was entered as input and skin tissue was entered as an argument for calculation. • (RNAAgeCalc pakage: https://bioconductor.org/packages/release/bioc/html/RNAAgeCalc.html, • Ren X, Kuan P F (2020). “A multi-tissue transcriptional age calculators.” PLOS ONE, 15(8),-20. doi: 10.1371/journal.pone.0237006)

melanocytes [2] = experiment: Observation of cell morphology after UVB-induced senescence; details: UVB 5 mJ/cm^2 twice at 24-hour intervals, then treated and incubated 2 weeks; FIG. 3
Description: as §1
Melanocytes were irradiated with 5 mJ/cm^2 of UVB twice at 24-hour intervals using a 1 UVB UV irradiator (Bio-Sun), and then treated with Melasolv and incubated for 2 weeks. A photograph of the cells is taken using an optical microscope (ECLIPSE TS100 from NIKON), and the shape of the cells is examined. Referring to FIG. 3, when treated with ultraviolet (UVB) that induce cellular senescence (Chr UVB; Chronic UVB in FIG. 3), it could be confirmed that the skin cells were flattened or enlarged, as shown by three spots that were slightly larger than the others in the middle of the photograph.

[3] = tested on: β-galactosidase in melanocytes; experiment: beta-galactosidase assay (senescence staining) after UVB; details: UVB 5 mJ/cm^2 twice at 24-hour intervals, then treated and incubated 2 weeks; vs UVB only; FIG. 4
Description: as §1
Melanocytes were irradiated with 5 mJ/cm^2 of UVB twice at 24-hour intervals using a 1 UVB UV irradiator (Bio-Sun), and then treated with Melasolv and incubated for 2 weeks. To measure the degree of cellular senescence, a beta-galactosidase assay was performed using a beta-gal staining kit from Life technologies. A photograph was taken using an optical microscope (ECLIPSE TS100 from NIKON), and then the number of cells with stained beta-galactosidase was counted.

## COc1cc(/C=C/C(=O)Oc2cc(C)ccc2C(C)C)cc(OC)c1OC [Melasolv, (5-methyl-2-propan-2-ylphenyl) (E)-3-(3,4,5-trimethoxyphenyl) prop-2-enoate]
Melanocytes [1]
  decrease of RNA-age of melanocytes: about 4 years
Melanocytes [2]
  change in cell morphology (flattened or enlarged cells): reduces changes in skin cells caused by UVB
[3]
  β-galactosidase (number of stained cells): reduced to a statistically significant degree
